The record followed here is patent US20140206681A1, “BTK INHIBITORS” (priority 2013, published 2014).

pIC50: −log10 of the molar value.

In one test the test system is HeLa cells. As to the kind of experiment: [3H]Adenosine uptake functional cellular assay. The settings on record: Homo sapiens, HeLa, accumulation of [3H]adenosine into HeLa cells; compound range 10 μM to […]; read-out: Adenosine uptake inhibition IC50. In kind it is cell-based. The method in brief:
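Inhibition of adenosine uptake was measured in HeLa cells (ATCC CCL-2) by following accumulation of tritiated adenosine. Cells were kept overnight at 37° C. with 5% (v/v) CO2, then switched to 40 μL HBSS plus 5% (v/v) FBS. 20 μL of 500 nM [3H]adenosine was added, and uptake was counted on a Topcount NXT reader.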

The target of test [1] is T1, BTK enzyme (recombinant full-length BTK, hBTK) (Homo sapiens, UniProt Q06187).
T1 construct: recombinant protein from baculovirus-transfected Sf9 cells: full-length BTK, 6HIS-tag cleaved; 6HIS (cleaved yes); made in house; host or cells: baculovirus-transfected Sf9 cells
In words: BTK enzyme activity assay, LANCE TR-FRET. In kind it is biochemical. The settings on record: 50 pM hBTK, 2 μM biotin-A5-peptide, 25 μM ATP; 60 min compound & enzyme incubation; read-out: IC50 BTK activity value. (TR-FRET usually uses a lanthanide donor and a delayed reading to cut background.)

T1 sequence (Q06187 whole entry): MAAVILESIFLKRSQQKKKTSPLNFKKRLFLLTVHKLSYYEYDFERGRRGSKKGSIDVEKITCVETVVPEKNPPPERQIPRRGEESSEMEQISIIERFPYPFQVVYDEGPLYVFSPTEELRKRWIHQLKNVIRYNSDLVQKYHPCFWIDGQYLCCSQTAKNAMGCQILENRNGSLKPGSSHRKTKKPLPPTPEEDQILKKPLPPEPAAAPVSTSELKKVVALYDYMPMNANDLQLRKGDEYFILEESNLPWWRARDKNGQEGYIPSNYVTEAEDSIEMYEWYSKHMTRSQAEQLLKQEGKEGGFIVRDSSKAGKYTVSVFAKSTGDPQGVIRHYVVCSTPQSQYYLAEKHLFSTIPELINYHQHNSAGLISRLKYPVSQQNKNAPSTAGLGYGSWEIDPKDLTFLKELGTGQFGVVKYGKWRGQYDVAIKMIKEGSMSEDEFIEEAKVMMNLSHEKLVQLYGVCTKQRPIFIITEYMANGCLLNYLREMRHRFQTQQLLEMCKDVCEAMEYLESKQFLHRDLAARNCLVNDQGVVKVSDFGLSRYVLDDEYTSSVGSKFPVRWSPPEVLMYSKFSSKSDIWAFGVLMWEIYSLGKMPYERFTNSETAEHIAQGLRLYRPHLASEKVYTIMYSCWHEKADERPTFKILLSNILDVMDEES

For orientation: pIC50 means the IC50 on a negative log10 scale, so that one unit is a factor of ten. Take `N#Cc1cc(C(=O)Nc2cc(C(F)(F)F)ccn2)ccc1-c1nc([C@@H]2CC[C@H]3CCC(=O)N3C2)n2ccnc(N)c12` [Example 123, 4-{8-amino-3-[(6R,8aS)-3-oxooctahydroindolizin-6-yl]imidazo[1,5-a]pyrazin-1-yl}-3-cyano-N-[4-(trifluoromethyl)pyridin-2-yl]benzamide]: the pIC50 is 6.14 in the test on HeLa cells and 8.20 in test [1].
Take `NC(=O)c1cc(C(=O)Nc2cc(C(F)(F)F)ccn2)ccc1-c1nc([C@@H]2CC[C@H]3CCC(=O)N3C2)n2ccnc(N)c12` [Example 124, 4-{8-amino-3-[(6R,8aS)-3-oxooctahydroindolizin-6-yl]imidazo[1,5-a]pyrazin-1-yl}-N~1~-[4-(trifluoromethyl)pyridin-2-yl]benzene-1,3-dicarboxamide]: the negative logarithm of the IC50 (pIC50) in the test on HeLa cells was at most 5.00; in test [1], 6.46.
The matching figures for `CC(C)c1cc(C(F)(F)F)cc(NC(=O)c2ccc(-c3nc([C@@H]4CC[C@H]5CCC(=O)N5C4)n4ccnc(N)c34)cc2)n1` [Example 125, 4-{8-amino-3-[(6R,8aS)-3-oxooctahydroindolizin-6-yl]imidazo[1,5-a]pyrazin-1-yl}-N-[6-(1-methylethyl)-4-(trifluoromethyl)pyridin-2-yl]benzamide]: 6.19 and 6.56.
`Nc1nccn2c([C@@H]3CC[C@H]4CCC(=O)N4C3)nc(-c3ccc(C(=O)Nc4cc(C(F)(F)F)ccn4)cc3C(=O)O)c12` [Example 127, 2-{8-amino-3-[(6R,8aS)-3-oxooctahydroindolizin-6-yl]imidazo[1,5-a]pyrazin-1-yl}-5-{[4-(trifluoromethyl)pyridin-2-yl]carbamoyl}benzoic acid]: the negative logarithm of the IC50 (pIC50) in the test on HeLa cells is 5.29; in test [1], 7.08.
In the same order, the values of `CCOc1cc(C(=O)Nc2cc(C(F)(F)F)ccn2)ccc1-c1nc([C@@H]2CC[C@H]3CCC(=O)N3C2)n2c(Cl)cnc(N)c12` [Example 128, 4-{8-amino-5-chloro-3-[(6R,8aS)-3-oxooctahydroindolizin-6-yl]imidazo[1,5-a]pyrazin-1-yl}-3-ethoxy-N-[4-(trifluoromethyl)pyridin-2-yl]benzamide] are 5.94 and 9.57.
Turning to `COc1cccc(NC(=O)c2ccc(-c3nc([C@@H]4CC[C@H]5CCC(=O)N5C4)n4ccnc(N)c34)cc2)n1` [Example 129, 4-{8-amino-3-[(6R,8aS)-3-oxooctahydroindolizin-6-yl]imidazo[1,5-a]pyrazin-1-yl}-N-(6-methoxypyridin-2-yl)benzamide], the pIC50 in the test with HeLa cells is 7.41; in test [1], 7.09.
In the same order, the values of `COc1cc(C(=O)Nc2cc(C(F)(F)F)ccn2)c(F)cc1-c1nc([C@@H]2CC[C@H]3CCC(=O)N3C2)n2ccnc(N)c12` [Example 130, 4-{8-amino-3-[(6R,8aS)-3-oxooctahydroindolizin-6-yl]imidazo[1,5-a]pyrazin-1-yl}-2-fluoro-5-methoxy-N-[4-(trifluoromethyl)pyridin-2-yl]benzamide] are 6.14 and 8.60.
For `CCOc1cc(C(=O)Nc2cc(C(F)(F)F)n(C)n2)ccc1-c1nc([C@@H]2CC[C@H]3CCC(=O)N3C2)n2ccnc(N)c12` [Example 131, 4-{8-amino-3-[(6R,8aS)-3-oxooctahydroindolizin-6-yl]imidazo[1,5-a]pyrazin-1-yl}-3-ethoxy-N-[1-methyl-5-(trifluoromethyl)-1H-pyrazol-3-yl]benzamide], the negative logarithm of the IC50 (pIC50) is 5.56 with HeLa cells and 9.13 in test [1].
The matching figures for `COc1cc(C(=O)Nc2cc(C(F)(F)F)ccn2)c(F)cc1-c1nc([C@@H]2CC[C@H]3CCC(=O)N3C2)n2c(Cl)cnc(N)c12` [Example 132, 4-{8-amino-5-chloro-3-[(6R,8aS)-3-oxooctahydroindolizin-6-yl]imidazo[1,5-a]pyrazin-1-yl}-2-fluoro-5-methoxy-N-[4-(trifluoromethyl)pyridin-2-yl]benzamide]: 5.83 and 8.92.
As to `COc1cc(C(=O)Nc2cc(C(F)(F)F)ccn2)cc(F)c1-c1nc([C@@H]2CC[C@H]3CCC(=O)N3C2)n2ccnc(N)c12` [Example 134, 4-{8-amino-3-[(6R,8aS)-3-oxooctahydroindolizin-6-yl]imidazo[1,5-a]pyrazin-1-yl}-3-fluoro-5-methoxy-N-[4-(trifluoromethyl)pyridin-2-yl]benzamide], the pIC50 with HeLa cells is 5.80; in test [1], 9.55.
On to `CCOc1cc(C(=O)Nc2cc(C(F)(F)F)n(C)n2)ccc1-c1nc([C@@H]2CC[C@H]3CCC(=O)N3C2)n2c(Cl)cnc(N)c12` [Example 135, 4-{8-amino-5-chloro-3-[(6R,8aS)-3-oxooctahydroindolizin-6-yl]imidazo[1,5-a]pyrazin-1-yl}-3-ethoxy-N-[1-methyl-5-(trifluoromethyl)-1H-pyrazol-3-yl]benzamide], for which the pIC50 in the test on HeLa cells is 5.67; in test [1], 9.64.
The matching figures for `CCOc1cc(C(=O)Nc2cc(C3CC3)ccn2)c(F)cc1-c1nc([C@@H]2CC[C@H]3CCC(=O)N3C2)n2c(Cl)cnc(N)c12` [Example 136, 4-{8-amino-5-chloro-3-[(6R,8aS)-3-oxooctahydroindolizin-6-yl]imidazo[1,5-a]pyrazin-1-yl}-N-(4-cyclopropylpyridin-2-yl)-5-ethoxy-2-fluorobenzamide]: 5.84 and 9.11.
On to `CCOc1cc(C(=O)Nc2cc(C3CC3)ccn2)c(F)cc1-c1nc([C@@H]2CC[C@H]3CCC(=O)N3C2)n2ccnc(N)c12` [Example 137, 4-{8-amino-3-[(6R,8aS)-3-oxooctahydroindolizin-6-yl]imidazo[1,5-a]pyrazin-1-yl}-N-(4-cyclopropylpyridin-2-yl)-5-ethoxy-2-fluorobenzamide], for which the pIC50 in the test on HeLa cells is 5.92; in test [1] it was 8.70.
With `Nc1nccn2c([C@@H]3CC[C@H]4CCC(=O)N4C3)nc(-c3ccc(C(=O)Nc4cc(C(F)(F)F)ccn4)cc3OC3CCCCC3)c12` [Example 138, 4-{8-amino-3-[(6R,8aS)-3-oxooctahydroindolizin-6-yl]imidazo[1,5-a]pyrazin-1-yl}-3-(cyclohexyloxy)-N-[4-(trifluoromethyl)pyridin-2-yl]benzamide], the pIC50 is 5.86 in the test on HeLa cells and 6.87 in test [1].
Take `CC(C)Oc1cc(C(=O)Nc2cc(C(F)(F)F)ccn2)ccc1-c1nc([C@@H]2CC[C@H]3CCC(=O)N3C2)n2ccnc(N)c12` [Example 139, 4-{8-amino-3-[(6R,8aS)-3-oxooctahydroindolizin-6-yl]imidazo[1,5-a]pyrazin-1-yl}-3-(1-methylethoxy)-N-[4-(trifluoromethyl)pyridin-2-yl]benzamide]: the pIC50 in the test with HeLa cells is 5.89; in test [1], 8.24.
`Nc1nccn2c([C@@H]3CC[C@H]4CCC(=O)N4C3)nc(-c3ccc(C(=O)Nc4cc(C(F)(F)F)ccn4)cc3OC3CCC3)c12` [Example 140, 4-{8-amino-3-[(6R,8aS)-3-oxooctahydroindolizin-6-yl]imidazo[1,5-a]pyrazin-1-yl}-3-(cyclobutyloxy)-N-[4-(trifluoromethyl)pyridin-2-yl]benzamide]: the pIC50 in the test with HeLa cells is 6.12; in test [1], 8.34.
The matching figures for `Nc1nccn2c([C@@H]3CC[C@H]4CCC(=O)N4C3)nc(-c3ccc(C(=O)Nc4cc(C(F)(F)F)ccn4)cc3OC3CCCC3)c12` [Example 141, 4-{8-amino-3-[(6R,8aS)-3-oxooctahydroindolizin-6-yl]imidazo[1,5-a]pyrazin-1-yl}-3-(cyclopentyloxy)-N-[4-(trifluoromethyl)pyridin-2-yl]benzamide]: 6.08 and 7.63.
Turning to `CC(C)(C)COc1cc(C(=O)Nc2cc(C(F)(F)F)ccn2)ccc1-c1nc([C@@H]2CC[C@H]3CCC(=O)N3C2)n2ccnc(N)c12` [Example 142, 4-{8-amino-3-[(6R,8aS)-3-oxooctahydroindolizin-6-yl]imidazo[1,5-a]pyrazin-1-yl}-3-(2,2-dimethylpropoxy)-N-[4-(trifluoromethyl)pyridin-2-yl]benzamide], the pIC50 is 5.93 with HeLa cells and 7.76 in test [1].
As for `Cn1nc(NC(=O)c2ccc(-c3nc([C@@H]4CC[C@H]5CCC(=O)N5C4)n4c(Cl)cnc(N)c34)c(OC3CC3)c2)cc1C(F)(F)F` [Example 145, 4-{8-amino-5-chloro-3-[(6R,8aS)-3-oxooctahydroindolizin-6-yl]imidazo[1,5-a]pyrazin-1-yl}-3-(cyclopropyloxy)-N-[1-methyl-5-(trifluoromethyl)-1H-pyrazol-3-yl]benzamide], the negative logarithm of the IC50 (pIC50) in the test with HeLa cells was 5.62; in test [1], 9.36.
In the same order, the values of `Cn1nc(NC(=O)c2ccc(-c3nc([C@@H]4CC[C@H]5CCC(=O)N5C4)n4ccnc(N)c34)c(OC3CC3)c2)cc1C(F)(F)F` [Example 146, 4-{8-amino-3-[(6R,8aS)-3-oxooctahydroindolizin-6-yl]imidazo[1,5-a]pyrazin-1-yl}-3-(cyclopropyloxy)-N-[1-methyl-5-(trifluoromethyl)-1H-pyrazol-3-yl]benzamide] are 5.30 and 9.23.
Regarding `Nc1ncc(Cl)n2c([C@@H]3CC[C@H]4CCC(=O)N4C3)nc(-c3ccc(C(=O)Nc4cc(C5CC5)ccn4)cc3OC3CC3)c12` [Example 147, 4-{8-amino-5-chloro-3-[(6R,8aS)-3-oxooctahydroindolizin-6-yl]imidazo[1,5-a]pyrazin-1-yl}-3-(cyclopropyloxy)-N-(4-cyclopropylpyridin-2-yl)benzamide], the results for the negative logarithm of the IC50 (pIC50) (in the test on HeLa cells; in test [1]) were 6.02 and 9.12, respectively.
